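Cultured in 96-well plates, cells were exposed to test compound for 48 hours across five concentrations. Definition used: TGI = concentration required for complete inhibition of growth.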
Key:
Experiment in all cases: NCI tumour cell line growth inhibition, 48 h
[1] = test system: 786-0 renal
[2] = test system: A498 renal
[3] = test system: A549 NSCLC
[4] = test system: ACHN renal
[5] = test system: BT-549 breast
[6] = test system: CAKI-1 renal
[7] = test system: CCRF-CEM leukemia
[8] = test system: COLO 205 colon
[9] = test system: DU-145 prostate
[10] = test system: EKVX NSCLC
[11] = test system: HCC-2998 colon
[12] = test system: HCT-116 colon
[13] = test system: HCT-15 colon
[14] = test system: HL-60(TB) leukemia
[15] = test system: HOP-62 NSCLC
[16] = test system: HOP-92 NSCLC
[17] = test system: HS 578T breast
[18] = test system: HT29 colon
[19] = test system: IGROV1 ovarian
[20] = test system: K-562 leukemia
[21] = test system: KM12 colon
[22] = test system: LOX IMVI melanoma
[23] = test system: M14 melanoma
[24] = test system: MALME-3M melanoma
[25] = test system: MCF7 breast
[26] = test system: MDA-MB-231 breast
[27] = test system: MDA-MB-435
[28] = test system: MDA-N
[29] = test system: MOLT-4 leukemia
[30] = test system: NCI-H226 lung
[31] = test system: NCI-H23 lung
[32] = test system: NCI-H460 lung
[33] = test system: NCI-H522 lung
[34] = test system: NCI/ADR-RES ovarian
[35] = test system: OVCAR-3 ovarian
[36] = test system: OVCAR-4 ovarian
[37] = test system: OVCAR-5 ovarian
[38] = test system: OVCAR-8 ovarian
[39] = test system: PC-3 prostate
[40] = test system: RPMI-8226 leukemia
[41] = test system: RXF 393 renal
[42] = test system: SF-268 CNS
[43] = test system: SF-295 CNS
[44] = test system: SF-539 CNS
[45] = test system: SK-MEL-2 melanoma
[46] = test system: SK-MEL-28 melanoma
[47] = test system: SK-MEL-5 melanoma
[48] = test system: SK-OV-3 ovarian
[49] = test system: SN12C renal
[50] = test system: SNB-19 CNS
[51] = test system: SNB-75 CNS
[52] = test system: SR leukemia
[53] = test system: SW-620 colon
[54] = test system: T-47D breast
[55] = test system: TK-10 renal
[56] = test system: U251 CNS
[57] = test system: UACC-257 melanoma
[58] = test system: UACC-62 melanoma
[59] = test system: UO-31 renal

## O=C(CC(O)c1cccnc1)CC(O)c1cccnc1 (stereo not given)
[1]
  TGI: 39.2 µM
[2]
  TGI: 30.6 µM
[3]
  TGI: 47.7 µM
[4]
  TGI: 35.3 µM
[5]
  TGI: 25.6 µM
[6]
  TGI: 35.9 µM
[7]
  TGI: 20.9 µM
[8]
  TGI: 29 µM
[9]
  TGI: > 89.7 µM
[10]
  TGI: 43.8 µM
[11]
  TGI: 28.6 µM
[12]
  TGI: 4.33 µM
[13]
  TGI: 29.6 µM
[14]
  TGI: > 100 µM
[15]
  TGI: 50.8 µM
[16]
  TGI: 34.5 µM
[17]
  TGI: > 100 µM
[18]
  TGI: 20.7 µM
[19]
  TGI: 29.9 µM
[20]
  TGI: > 51.5 µM
[21]
  TGI: 26.7 µM
[22]
  TGI: 15.4 µM
[23]
  TGI: 27.8 µM
[24]
  TGI: 39.9 µM
[25]
  TGI: 20 µM
[26]
  TGI: 29.9 µM
[27]
  TGI: 55.3 µM
[28]
  TGI: 25.5 µM
[29]
  TGI: > 52.1 µM
[30]
  TGI: > 100 µM
[31]
  TGI: 52 µM
[32]
  TGI: 35.9 µM
[33]
  TGI: 32.1 µM
[34]
  TGI: > 66.1 µM
[35]
  TGI: 28.1 µM
[36]
  TGI: 40.9 µM
[37]
  TGI: 54 µM
[38]
  TGI: 35.7 µM
[39]
  TGI: 42.9 µM
[40]
  TGI: > 100 µM
[41]
  TGI: 32.1 µM
[42]
  TGI: > 95.9 µM
[43]
  TGI: 30.7 µM
[44]
  TGI: 53.8 µM
[45]
  TGI: 37 µM
[46]
  TGI: 44.2 µM
[47]
  TGI: 32.2 µM
[48]
  TGI: 32.6 µM
[49]
  TGI: 38.8 µM
[50]
  TGI: 55.4 µM
[51]
  TGI: 35.4 µM
[52]
  TGI: > 100 µM
[53]
  TGI: 19.6 µM
[54]
  TGI: > 73.5 µM
[55]
  TGI: > 100 µM
[56]
  TGI: 33 µM
[57]
  TGI: 36.1 µM
[58]
  TGI: 32.2 µM
[59]
  TGI: 32.5 µM

## COCn1c(=O)n(C)c(=O)c2c1nc1c(c(=O)n(C)c(=O)n1COC)[n+]2[O-]
[1]
  TGI: > 100 µM
[2]
  TGI: 82.8 µM
[3]
  TGI: 91.2 µM
[4]
  TGI: 38 µM
[5]
  TGI: 87.1 µM
[6]
  TGI: 64.5 µM
[7]
  TGI: 27.4 µM
[8]
  TGI: 31.8 µM
[9]
  TGI: 94.9 µM
[10]
  TGI: 44.1 µM
[11]
  TGI: 18.1 µM
[12]
  TGI: 39.5 µM
[13]
  TGI: 30.6 µM
[14]
  TGI: 39.1 µM
[15]
  TGI: 59.1 µM
[16]
  TGI: 42 µM
[17]
  TGI: 50.1 µM
[18]
  TGI: > 100 µM
[19]
  TGI: 48.9 µM
[20]
  TGI: 24 µM
[21]
  TGI: > 100 µM
[22]
  TGI: 27.7 µM
[23]
  TGI: 43.9 µM
[24]
  TGI: 31.3 µM
[25]
  TGI: > 100 µM
[26]
  TGI: 44.4 µM
[27]
  TGI: 40.2 µM
[28]
  TGI: 76.9 µM
[29]
  TGI: 29.5 µM
[30]
  TGI: 40.8 µM
[31]
  TGI: 14 µM
[32]
  TGI: 24.9 µM
[33]
  TGI: 44 µM
[34]
  TGI: > 100 µM
[35]
  TGI: 44.1 µM
[36]
  TGI: 43.4 µM
[37]
  TGI: 97.2 µM
[38]
  TGI: 45.1 µM
[39]
  TGI: 34.1 µM
[40]
  TGI: 37.8 µM
[41]
  TGI: 10.9 µM
[42]
  TGI: 77 µM
[43]
  TGI: 55.4 µM
[44]
  TGI: 39.2 µM
[45]
  TGI: 36.8 µM
[46]
  TGI: > 100 µM
[47]
  TGI: 19.7 µM
[48]
  TGI: 36.1 µM
[49]
  TGI: 83.7 µM
[50]
  TGI: > 100 µM
[51]
  TGI: 22.3 µM
[52]
  TGI: 21.3 µM
[53]
  TGI: > 100 µM
[54]
  TGI: 41.8 µM
[55]
  TGI: 58.8 µM
[56]
  TGI: 59.6 µM
[57]
  TGI: 54.8 µM
[58]
  TGI: 33.7 µM
[59]
  TGI: > 100 µM

## Cc1c2ccccc2c(CSC(=N)N)c2ccccc12
[1]
  TGI: 0.745 µM
[2]
  TGI: 0.4 µM
[3]
  TGI: 1.62 µM
[4]
  TGI: 0.303 µM
[5]
  TGI: 3.72 µM
[7]
  TGI: 0.0588 µM
[8]
  TGI: 0.37 µM
[9]
  TGI: 0.406 µM
[10]
  TGI: 1.33 µM
[12]
  TGI: 1.35 µM
[13]
  TGI: 1.96 µM
[14]
  TGI: 0.343 µM
[15]
  TGI: 1.99 µM
[16]
  TGI: 1.43 µM
[17]
  TGI: 0.475 µM
[18]
  TGI: 1.05 µM
[19]
  TGI: 2.36 µM
[20]
  TGI: 1.4 µM
[21]
  TGI: 0.545 µM
[22]
  TGI: 1.06 µM
[23]
  TGI: 0.537 µM
[24]
  TGI: 0.356 µM
[25]
  TGI: 0.518 µM
[26]
  TGI: 1.03 µM
[27]
  TGI: 0.44 µM
[28]
  TGI: 0.457 µM
[29]
  TGI: 0.127 µM
[30]
  TGI: 0.679 µM
[31]
  TGI: 0.272 µM
[32]
  TGI: 0.374 µM
[33]
  TGI: 0.196 µM
[34]
  TGI: 0.924 µM
[35]
  TGI: 2.73 µM
[36]
  TGI: 0.514 µM
[37]
  TGI: 1.13 µM
[38]
  TGI: 6.43 µM
[39]
  TGI: 0.829 µM
[40]
  TGI: 0.558 µM
[41]
  TGI: 0.161 µM
[42]
  TGI: 1.33 µM
[43]
  TGI: 2.29 µM
[44]
  TGI: 0.419 µM
[45]
  TGI: 0.375 µM
[46]
  TGI: 0.809 µM
[47]
  TGI: 0.331 µM
[48]
  TGI: 2.67 µM
[49]
  TGI: 0.903 µM
[50]
  TGI: 1.39 µM
[51]
  TGI: 0.445 µM
[52]
  TGI: 0.0673 µM
[53]
  TGI: 0.947 µM
[54]
  TGI: 5.32 µM
[55]
  TGI: 0.667 µM
[56]
  TGI: 0.818 µM
[57]
  TGI: 0.406 µM
[58]
  TGI: 0.408 µM
[59]
  TGI: 0.511 µM

Reference: PubChem BioAssay (NCI)
